Assay [1] addresses T1, human CYP11B1 (Homo sapiens, UniProt P15538).
T1 construct: expressed in transfected cells
T1 sequence (P15538 25-503): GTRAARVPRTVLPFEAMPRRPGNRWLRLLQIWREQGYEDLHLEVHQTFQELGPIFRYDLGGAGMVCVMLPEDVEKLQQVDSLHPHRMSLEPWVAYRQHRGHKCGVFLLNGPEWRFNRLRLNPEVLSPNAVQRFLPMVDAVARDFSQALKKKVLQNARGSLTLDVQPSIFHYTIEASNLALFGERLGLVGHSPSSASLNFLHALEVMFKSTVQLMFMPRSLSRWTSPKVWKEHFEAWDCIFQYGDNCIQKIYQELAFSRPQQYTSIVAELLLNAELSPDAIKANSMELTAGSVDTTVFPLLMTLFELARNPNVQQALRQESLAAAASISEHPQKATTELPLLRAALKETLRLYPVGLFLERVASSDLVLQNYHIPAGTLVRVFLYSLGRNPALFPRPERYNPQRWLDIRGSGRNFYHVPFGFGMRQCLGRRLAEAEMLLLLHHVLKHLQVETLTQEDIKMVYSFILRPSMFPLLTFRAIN
Nature of the assay: Inhibition of hCYP11B1 in transfected V79 cells. The assay is classed as cell-based. The settings on record: hamster V79 cells expressing human CYP11B1; substrate 11-deoxycortisol 200 nM. The method in brief: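 Reactions started with 200 nM 11-deoxycortisol, ran for 30 min and were stopped with ethyl acetate, after a 2 h compound preincubation. The host was stably transfected V79 hamster cells carrying human CYP11B1 plus rat P450 reductase. Percent inhibition, from LC-MS/MS or HPLC (260 nm) quantitation of substrate and product, gave the IC50.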

Assay [2] has as its target T2, human CYP11B2 (Homo sapiens, UniProt P19099).
T2 construct: expressed in transfected cells
T2 sequence (P19099 25-503): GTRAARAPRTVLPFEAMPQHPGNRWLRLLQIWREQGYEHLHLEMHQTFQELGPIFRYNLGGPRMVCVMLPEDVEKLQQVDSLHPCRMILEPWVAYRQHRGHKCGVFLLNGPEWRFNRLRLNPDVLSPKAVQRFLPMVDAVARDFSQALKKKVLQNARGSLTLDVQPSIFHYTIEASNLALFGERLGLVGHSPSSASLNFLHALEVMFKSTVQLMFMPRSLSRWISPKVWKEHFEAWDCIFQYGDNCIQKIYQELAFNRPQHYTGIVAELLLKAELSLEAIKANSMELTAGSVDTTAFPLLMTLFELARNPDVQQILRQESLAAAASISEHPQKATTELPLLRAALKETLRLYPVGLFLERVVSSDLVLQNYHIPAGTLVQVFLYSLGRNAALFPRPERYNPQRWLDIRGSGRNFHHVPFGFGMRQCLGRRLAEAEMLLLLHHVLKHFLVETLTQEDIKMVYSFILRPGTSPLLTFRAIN
Nature of the assay: Inhibition of hCYP11B2 in transfected V79 cells. The class given is cell-based. As to conditions: hamster V79 cells expressing human CYP11B2; substrate 11-deoxycorticosterone 200 nM. A digest of the protocol:
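The substrate (200 nM, 30 min) was added after a 2 hour compound pre-incubation in lentivirus-transduced V79 cells stably expressing human CYP11B2 plus rat NADPH-P450 reductase.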

Experimental findings from US20260092074A1, “Annelated Pyridines as Steroidogenesis Inhibitors, Preparation Method and Use Thereof” (Guangzhou Vinnocent Pharmaceutical Limited, priority 2022, published 2026) are described below.

The term IC50 denotes the point on the concentration scale where inhibition reaches its midpoint. A high value points to a need for much substance. Turning to `N#CN1CCN(c2cncc3c2OCCN3C(=O)C2CN(Cc3cccc(F)c3)C2)C(=O)C1` [O99, 4-(4-(1-(3-Fluorobenzyl)azetidine-3-carbonyl)-3,4-dihydro-2H-pyrido[4,3-b][1,4]oxazin-8-yl)-3-oxopiperazine-1-carbonitrile], the IC50 worked out at 0.652 µM in assay [1] and 0.039 µM in assay [2].
As to `COc1cccc(C2=NOC(S(=O)(=O)N3CCOc4c(-c5ccc(C#N)cc5)cncc43)C2)c1` (stereo not drawn) [O100, 4-(4-((3-(3-Methoxyphenyl)-4,5-dihydroisoxazol-5-yl)sulfonyl)-3,4-dihydro-2H-pyrido[4,3-b][1,4]oxazin-8-yl)benzonitrile], the IC50 in assay [1] amounted to 0.102 µM; in assay [2], 0.0003 µM.
For the molecule `N#Cc1ccc(-c2cncc3c2OCCN3S(=O)(=O)C2CC(c3cccc(C#N)c3)=NO2)cc1` (stereo not drawn) [O101, 3-(5-((8-(4-Cyanophenyl)-2,3-dihydro-4H-pyrido[4,3-b][1,4]oxazin-4-yl)sulfonyl)-4,5-dihydroisoxazol-3-yl)benzonitrile], the IC50 turned out to be 0.057 µM in assay [1] and 0.0004 µM in assay [2].
For `N#Cc1ccc(-c2cncc3c2OCCN3S(=O)(=O)C2CC(c3ccccc3)=NO2)cc1` (stereo not drawn) [O102, 4-(4-((3-Phenyl-4,5-dihydroisoxazol-5-yl)sulfonyl)-3,4-dihydro-2H-pyrido[4,3-b][1,4]oxazin-8-yl)benzonitrile], the values for the IC50 in assay [1] and in assay [2] were 0.062 µM and 0.0003 µM, respectively.
As for `N#Cc1ccc(-c2cncc3c2OCCN3S(=O)(=O)C2CC(Cc3ccccc3)=NO2)cc1` (stereo not drawn) [O103, 4-(4-((3-benzyl-4,5-dihydroisoxazol-5-yl)sulfonyl)-3,4-dihydro-2H-pyrido[4,3-b][1,4]oxazin-8-yl)benzonitrile], the IC50 in assay [1] worked out at 0.079 µM; in assay [2], 0.0005 µM.
The matching figures for `N#Cc1ccc(-c2cncc3c2OCCN3C(=O)[C@H]2CCN(Cc3cccc(F)c3)C2)cc1` [O104, (S)-4-(4-(1-(3-Fluorobenzyl)pyrrolidine-3-carbonyl)-3,4-dihydro-2H-pyrido[4,3-b][1,4]oxazin-8-yl)benzonitrile]: 0.468 µM and 0.0041 µM.
On to `N#Cc1ccc(-c2cncc3c2OCCN3C(=O)[C@@H]2CCN(Cc3cccc(F)c3)C2)cc1` [O105, (R)-4-(4-(1-(3-Fluorobenzyl)pyrrolidine-3-carbonyl)-3,4-dihydro-2H-pyrido[4,3-b][1,4]oxazin-8-yl)benzonitrile], for which the IC50 in assay [1] was 0.65 µM; in assay [2], 0.029 µM.
Regarding `Clc1ccc2oc(-c3cncc4c3OCCN4)cc2c1` [O108, 8-(5-Chlorobenzofuran-2-yl)-3,4-dihydro-2H-pyrido[4,3-b][1,4]oxazine], the IC50 in assay [1] is 0.359 µM; in assay [2], 0.0079 µM.
For the molecule `N#Cc1ccc2oc(-c3cncc4c3OCCN4)cc2c1` [O109, 2-(3,4-Dihydro-2H-pyrido[4,3-b][1,4]oxazin-8-yl)benzofuran-5-carbonitrile], the IC50 is 0.376 µM in assay [1] and 0.0048 µM in assay [2].
For the molecule `N#Cc1ccc(-c2cncc3c2OCCN3S(=O)(=O)C2CN(C(=O)c3cccc(C#N)c3)C2)cc1` [O110, 4-(4-((1-(3-Cyanobenzoyl)azetidin-3-yl)sulfonyl)-3,4-dihydro-2H-pyrido[4,3-b][1,4]oxazin-8-yl)benzonitrile], the IC50 in assay [1] stood at 0.484 µM; in assay [2], 0.0193 µM.
Turning to `N#Cc1ccc(C(=O)N2CC(S(=O)(=O)N3CCOc4c(-c5ccc(C#N)cc5)cncc43)C2)cc1` [O111, 4-(4-((1-(4-Cyanobenzoyl)azetidin-3-yl)sulfonyl)-3,4-dihydro-2H-pyrido[4,3-b][1,4]oxazin-8-yl)benzonitrile], the IC50 is 0.216 µM in assay [1] and 0.0232 µM in assay [2].
The matching figures for `COc1cccc(C(=O)N2CC(S(=O)(=O)N3CCOc4c(-c5ccc(C#N)cc5)cncc43)C2)c1` [O112, 4-(4-((1-(3-Methoxybenzoyl)azetidin-3-yl)sulfonyl)-3,4-dihydro-2H-pyrido[4,3-b][1,4]oxazin-8-yl)benzonitrile]: 0.169 µM and 0.027 µM.
With `COc1ccc(C(=O)N2CC(S(=O)(=O)N3CCOc4c(-c5ccc(C#N)cc5)cncc43)C2)cc1` [O113, 4-(4-((1-(4-Methoxybenzoyl)azetidin-3-yl)sulfonyl)-3,4-dihydro-2H-pyrido[4,3-b][1,4]oxazin-8-yl)benzonitrile], the IC50 in assay [1] stood at 0.097 µM; in assay [2], 0.003 µM.
Consider `N#Cc1ccc(-c2cncc3c2OCCN3S(=O)(=O)C2CN(S(=O)(=O)c3ccc(C#N)cc3)C2)cc1` [O114, 4-((3-((8-(4-Cyanophenyl)-2,3-dihydro-4H-pyrido[4,3-b][1,4]oxazin-4-yl)sulfonyl)azetidin-1-yl)sulfonyl)benzonitrile], for which the IC50 in assay [1] was found to be 0.069 µM; in assay [2], 0.007 µM.
On the same counts, the results for `N#Cc1ccc(-c2cncc3c2OCCN3S(=O)(=O)C2CN(S(=O)(=O)c3cccc(C#N)c3)C2)cc1` [O115, 3-((3-((8-(4-Cyanophenyl)-2,3-dihydro-4H-pyrido[4,3-b][1,4]oxazin-4-yl)sulfonyl)azetidin-1-yl)sulfonyl)benzonitrile] are 0.104 µM and 0.0032 µM.
On the same counts, the results for `N#Cc1ccc(-c2cncc3c2OCCN3S(=O)(=O)C2CN(S(=O)(=O)c3ccc(F)cc3)C2)cc1` [O116, 4-(4-((1-((4-Fluorophenyl)sulfonyl)azetidin-3-yl)sulfonyl)-3,4-dihydro-2H-pyrido[4,3-b][1, 4]oxazin-8-yl)benzonitrile] are 0.054 µM and 0.0031 µM.
`N#Cc1ccc(-c2cncc3c2OCCN3S(=O)(=O)C2CN(S(=O)(=O)c3cccc(F)c3)C2)cc1` [O117, 4-(4-((1-((3-Fluorophenyl)sulfonyl)azetidin-3-yl)sulfonyl)-3,4-dihydro-2H-pyrido[4,3-b][1, 4]oxazin-8-yl)benzonitrile]: the IC50 turned out to be 0.045 µM in assay [1] and 0.0024 µM in assay [2].
With `COc1ccc(S(=O)(=O)N2CC(S(=O)(=O)N3CCOc4c(-c5ccc(C#N)cc5)cncc43)C2)cc1` [O118, 4-(4-((1-((4-Methoxyphenyl)sulfonyl)azetidin-3-yl)sulfonyl)-3,4-dihydro-2H-pyrido[4,3-b][1,4]oxazin-8-yl)benzonitrile], the IC50 in assay [1] was 0.039 µM; in assay [2] it was 0.0027 µM.
For the molecule `COc1cccc(S(=O)(=O)N2CC(S(=O)(=O)N3CCOc4c(-c5ccc(C#N)cc5)cncc43)C2)c1` [O119, 4-(4-((1-((3-Methoxyphenyl)sulfonyl)azetidin-3-yl)sulfonyl)-3,4-dihydro-2H-pyrido[4,3-b][1,4]oxazin-8-yl)benzonitrile], the IC50 in assay [1] came to 0.038 µM; in assay [2] it was 0.0042 µM.
For `N#Cc1ccc(-c2cncc3c2OCCN3S(=O)(=O)C2CN(Cc3cccc(C#N)c3)C2)cc1` [O120, 3-((3-((8-(4-Cyanophenyl)-2,3-dihydro-4H-pyrido[4,3-b][1,4]oxazin-4-yl)sulfonyl)azetidin-1-yl)methyl)benzonitrile], the values for the IC50 in assay [1] and in assay [2] were 0.029 µM and 0.0003 µM, respectively.
On to `N#Cc1ccc(CN2CC(S(=O)(=O)N3CCOc4c(-c5ccc(C#N)cc5)cncc43)C2)cc1` [O121, 4-(4-((1-(4-Cyanobenzyl)azetidin-3-yl)sulfonyl)-3,4-dihydro-2H-pyrido[4,3-b][1,4]oxazin-8-yl)benzonitrile], for which the IC50 in assay [1] is 0.036 µM; in assay [2] it was 0.0004 µM.
Take `N#Cc1ccc(-c2cncc3c2OCCN3S(=O)(=O)C2CN(Cc3cccc(F)c3)C2)cc1` [O122, 4-(4-((1-(3-Fluorobenzyl)azetidin-3-yl)sulfonyl)-3,4-dihydro-2H-pyrido[4,3-b][1,4]oxazin-8-yl)benzonitrile]: the results for the IC50 in assay [1] and in assay [2] were 0.059 µM and 0.0008 µM, respectively.
With `N#Cc1ccc(-c2cncc3c2OCCN3S(=O)(=O)C2CN(Cc3ccc(F)cc3)C2)cc1` [O123, 4-(4-((1-(4-Fluorobenzyl)azetidin-3-yl)sulfonyl)-3,4-dihydro-2H-pyrido[4,3-b][1,4]oxazin-8-yl)benzonitrile], the figures for the IC50 in assay [1] and in assay [2] were 0.026 µM and 0.0003 µM, respectively.
Take `COc1cccc(CN2CC(S(=O)(=O)N3CCOc4c(-c5ccc(C#N)cc5)cncc43)C2)c1` [O124, 4-(4-((1-(3-Methoxybenzyl)azetidin-3-yl)sulfonyl)-3,4-dihydro-2H-pyrido[4,3-b][1,4]oxazin-8-yl)benzonitrile]: the IC50 in assay [1] is 0.038 µM; in assay [2] it was 0.0006 µM.
